From US5420115A, “Method for the treatment of protoza infections with 2^1 -deoxy-2^1 -fluoropurine nucleosides” (priority 1992, dated 1995)
Like-named read-outs stand apart in the source and are kept apart here.

Experiments:
Influenza A and B [1] = assay type: in vivo, mouse; details: given as +(n), route and dose not specified
Influenza A and B [2] = assay: microbe, parasite or virus in culture; assay type: cell-based, chick embryo cells; details: read-out: Anti-influenza Activity CE cells IC50
[3] = primary chick embryo (CE) cells, influenza strain not given

Nc1nc(N)c2ncn([C@@H]3O[C@H](CO)[C@@H](O)[C@H]3F)c2n1 [Example 6, 2,6-Diamino-9-(2-deoxy-2-fluoro-β-D-ribofuranosyl)-9H-purine]
Mouse log10 reduction in virus titre (Average of 5 Mice) (Influenza A and B [1]): 2.1 log10 | IC50 (Influenza A and B [2]; in Gallus gallus): 0.6 µM

Nc1nc2c(ncn2[C@@H]2O[C@H](CO)[C@@H](O)[C@H]2F)c(=O)[nH]1 [Example 7, 9-(2-Deoxy-2-fluoro-β-D-ribofuranosyl)guanine]
Mouse log10 reduction in virus titre (Average of 5 Mice) (Influenza A and B [1]): 2.4 log10 | IC50 (Influenza A and B [2]; [3]): 0.8 to 2 µM

Nc1ncnc2c1ncn2[C@@H]1O[C@H](CO)[C@@H](O)[C@H]1F [Example 8, 9-(2-Deoxy-2-fluoro-β-D-ribofuranosyl)adenine]
Mouse log10 reduction in virus titre (Average of 5 Mice) (Influenza A and B [1]): 2.3 log10 | IC50 (Influenza A and B [2]; [3]): 4 µM

Nc1ncc2ncn([C@@H]3O[C@H](CO)[C@@H](O)[C@H]3F)c2n1 [Example 9, 2-Amino-9-(2-deoxy-2-fluoro-β-D-ribofuranosyl)-9H-purine]
Mouse log10 reduction in virus titre (Average of 5 Mice) (Influenza A and B [1]): 1.6 log10

COc1nc(N)nc2c1ncn2[C@@H]1O[C@H](CO)[C@@H](O)[C@H]1F [Example 12, 2-Amino-9-(2-deoxy-2-fluoro-β-D-ribofuranosyl)-6-methoxy-9H-purine]
Mouse log10 reduction in virus titre (Average of 5 Mice) (Influenza A and B [1]): 1.9 log10 | IC50 (Influenza A and B [2]; [3]): 0.4 µM
